Measurements published in ChEMBL document CHEMBL1201862, “PubChem BioAssay data set” (2004).
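Tested at 5 concentrations; 48 h exposure; 96-well plates; endpoints linearly interpolated, else capped at highest concentration. GI50: concentration for 50% inhibition of growth.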 Active and inactive are the calls of the source. No stated cut-off is given here; in the data, active = GI50 up to about 1.1 µM and inactive = higher.

What was measured:
Assay in all cases: inhibition of tumour cell growth, NCI panel, 48 h
[1] = tested on: HCT-116
[2] = tested on: NCI-H23
[3] = tested on: HOP-62
[4] = tested on: UO-31
[5] = tested on: SN12C
[6] = tested on: MDA-MB-435
[7] = tested on: SF-295
[8] = tested on: MDA-N
[9] = tested on: DU-145
[10] = tested on: K562
[11] = tested on: LOX IMVI
[12] = tested on: T47D
[13] = tested on: NCI-H460
[14] = tested on: PC-3
[15] = tested on: HCT-15
[16] = tested on: IGROV-1
[17] = tested on: A498
[18] = tested on: UACC-62
[19] = tested on: SF-539
[20] = tested on: Malme-3M
[21] = tested on: SNB-19
[22] = tested on: SK-MEL-2
[23] = tested on: OVCAR-5
[24] = tested on: SK-MEL-28
[25] = tested on: NCI/ADR-RES
[26] = tested on: CAKI-1
[27] = tested on: UACC-257
[28] = tested on: HOP-92
[29] = tested on: HT-29
[30] = tested on: MCF7
[31] = tested on: RXF 393
[32] = tested on: 786-0
[33] = tested on: SR
[34] = tested on: SK-MEL-5
[35] = tested on: BT-549
[36] = tested on: SNB-75
[37] = tested on: Hs-578T
[38] = tested on: OVCAR-8
[39] = tested on: U-251
[40] = tested on: TK-10
[41] = tested on: RPMI-8226
[42] = tested on: M14
[43] = tested on: CCRF-CEM
[44] = tested on: OVCAR-3
[45] = tested on: SF-268
[46] = tested on: SK-OV-3
[47] = tested on: MOLT-4
[48] = tested on: COLO 205
[49] = tested on: ACHN
[50] = tested on: EKVX
[51] = tested on: SW-620
[52] = tested on: A549
[53] = tested on: KM12
[54] = tested on: MDA-MB-231
[55] = tested on: HL-60
[56] = tested on: HCC 2998
[57] = tested on: OVCAR-4
[58] = tested on: NCI-H522
[59] = tested on: NCI-H226

Q: How did the GI50 [1] turn out when `OC1(c2ccc3ccccc3c2)c2ccc3ccccc3c2C2=NCCN21` (centres undefined) was run?
A: Its GI50 is 34.6 µM (inactive).

Q: What about the GI50 [2] of the same molecule?
A: Its GI50 is > 100 µM (inactive).

Q: And the GI50 [3]?
A: Its GI50 is 18.5 µM (inactive).

Q: What about the GI50 [4] of the same molecule?
A: The GI50 was 40.9 µM (inactive).

Q: What about the GI50 [5] of the same molecule?
A: The GI50 was > 100 µM (inactive).

Q: What about the GI50 [6] of the same molecule?
A: The GI50 was > 100 µM (inactive).

Q: And the GI50 [7]?
A: The GI50 was 41.4 µM (inactive).

Q: And the GI50 [8]?
A: The GI50 was > 100 µM (inactive).

Q: And the GI50 [9]?
A: The GI50 was > 100 µM (inactive).

Q: And the GI50 [10]?
A: Its GI50 is 45 µM (inactive).

Q: What about the GI50 [11] of the same molecule?
A: Its GI50 is 91.8 µM (inactive).

Q: What about the GI50 [12] of the same molecule?
A: The GI50 was > 100 µM (inactive).

Q: And the GI50 [13]?
A: The GI50 was 23.6 µM (inactive).

Q: What about the GI50 [14] of the same molecule?
A: The GI50 was > 100 µM (inactive).

Q: And the GI50 [15]?
A: Its GI50 is greater than 100 µM.

Q: And the GI50 [16]?
A: The GI50 was > 100 µM (inactive).

Q: What about the GI50 [17] of the same molecule?
A: Its GI50 is > 100 µM (inactive).

Q: And the GI50 [18]?
A: The GI50 was > 100 µM (inactive).

Q: What about the GI50 [19] of the same molecule?
A: The GI50 was 19.5 µM (inactive).

Q: What about the GI50 [20] of the same molecule?
A: Its GI50 is > 100 µM (inactive).

Q: And the GI50 [21]?
A: Its GI50 is 66.8 µM (inactive).

Q: And the GI50 [22]?
A: Its GI50 is > 100 µM (inactive).

Q: What about the GI50 [23] of the same molecule?
A: Its GI50 is > 100 µM (inactive).

Q: And the GI50 [24]?
A: The GI50 was > 100 µM (inactive).

Q: What about the GI50 [25] of the same molecule?
A: The GI50 was 37.1 µM (inactive).

Q: And the GI50 [26]?
A: Its GI50 is > 100 µM (inactive).

Q: What about the GI50 [27] of the same molecule?
A: Its GI50 is > 100 µM (inactive).

Q: What about the GI50 [28] of the same molecule?
A: The GI50 was > 100 µM (inactive).

Q: And the GI50 [29]?
A: The GI50 was > 100 µM (inactive).

Q: And the GI50 [30]?
A: The GI50 was 48.2 µM (inactive).

Q: And the GI50 [31]?
A: The GI50 was 29.4 µM (inactive).

Q: What about the GI50 [32] of the same molecule?
A: Its GI50 is 24.8 µM (inactive).

Q: What about the GI50 [33] of the same molecule?
A: The GI50 was 36.8 µM (inactive).

Q: And the GI50 [34]?
A: Its GI50 is > 100 µM (inactive).

Q: What about the GI50 [35] of the same molecule?
A: Its GI50 is > 100 µM (inactive).

Q: What about the GI50 [36] of the same molecule?
A: Its GI50 is 24.9 µM (inactive).

Q: What about the GI50 [37] of the same molecule?
A: The GI50 was 24.5 µM (inactive).

Q: And the GI50 [38]?
A: The GI50 was 23.3 µM (inactive).

Q: And the GI50 [39]?
A: The GI50 was 45.7 µM (inactive).

Q: What about the GI50 [40] of the same molecule?
A: Its GI50 is 28.3 µM (inactive).

Q: And the GI50 [41]?
A: The GI50 was > 100 µM (inactive).

Q: And the GI50 [42]?
A: Its GI50 is > 100 µM (inactive).

Q: And the GI50 [43]?
A: Its GI50 is > 100 µM (inactive).

Q: And the GI50 [44]?
A: The GI50 was > 100 µM (inactive).

Q: And the GI50 [45]?
A: The GI50 was 54.3 µM (inactive).

Q: And the GI50 [46]?
A: Its GI50 is > 100 µM (inactive).

Q: And the GI50 [47]?
A: Its GI50 is > 100 µM (inactive).

Q: And the GI50 [48]?
A: The GI50 was > 100 µM (inactive).

Q: What about the GI50 [49] of the same molecule?
A: Its GI50 is > 100 µM (inactive).

Q: And the GI50 [50]?
A: The GI50 was > 100 µM (inactive).

Q: And the GI50 [51]?
A: The GI50 was 94.8 µM (inactive).

Q: What about the GI50 [52] of the same molecule?
A: The GI50 was 46.5 µM (inactive).

Q: And the GI50 [53]?
A: The GI50 was > 100 µM (inactive).

Q: And the GI50 [54]?
A: Its GI50 is 76.4 µM (inactive).

Q: And the GI50 [55]?
A: The GI50 was > 100 µM (inactive).

Q: And the GI50 [56]?
A: Its GI50 is 74.1 µM (inactive).

Q: And the GI50 [57]?
A: Its GI50 is 22.3 µM (inactive).

Q: What does the source list for `Cn1c(=O)c2sc3cc4c(cc3c2c2ccccc21)sc1c(=O)n(C)c2ccccc2c14`?
A: GI50 [1]: 67.5 µM (inactive); GI50 [2]: 45.7 µM (inactive); GI50 [3]: 19.9 µM (inactive); GI50 [4]: 74.8 µM (inactive); GI50 [5]: > 100 µM (inactive); GI50 [6]: > 100 µM (inactive); GI50 [7]: 15.2 µM (inactive); GI50 [8]: > 100 µM (inactive); GI50 [9]: > 100 µM (inactive); GI50 [10]: > 10 µM (inactive); GI50 [12]: > 100 µM (inactive); GI50 [13]: 52.4 µM (inactive); GI50 [14]: > 100 µM (inactive); GI50 [15]: > 100 µM; GI50 [58]: 34.2 µM (inactive); GI50 [16]: 65.9 µM (inactive); GI50 [17]: > 100 µM (inactive); GI50 [18]: > 100 µM (inactive); GI50 [19]: 76 µM (inactive); GI50 [20]: 81.7 µM (inactive); GI50 [22]: > 100 µM (inactive); GI50 [23]: 57.3 µM (inactive); GI50 [24]: > 100 µM (inactive); GI50 [25]: > 100 µM (inactive); GI50 [26]: > 100 µM (inactive); GI50 [59]: > 100 µM (inactive); GI50 [27]: > 100 µM (inactive); GI50 [28]: 23.9 µM (inactive); GI50 [29]: > 100 µM (inactive); GI50 [30]: > 100 µM (inactive); GI50 [31]: 15.9 µM (inactive); GI50 [32]: 31.8 µM (inactive); GI50 [33]: 25.8 µM (inactive); GI50 [34]: > 100 µM (inactive); GI50 [35]: 19.8 µM (inactive); GI50 [36]: 12.9 µM (inactive); GI50 [37]: 43.4 µM (inactive); GI50 [38]: 41.7 µM (inactive); GI50 [39]: 19 µM (inactive); GI50 [40]: > 100 µM (inactive); GI50 [41]: > 100 µM (inactive); GI50 [42]: 88.1 µM (inactive); GI50 [43]: 40.1 µM (inactive); GI50 [44]: > 100 µM (inactive); GI50 [45]: 59.7 µM (inactive); GI50 [46]: > 100 µM (inactive); GI50 [47]: 78.2 µM (inactive); GI50 [48]: > 100 µM (inactive); GI50 [49]: 19.2 µM (inactive); GI50 [50]: > 100 µM (inactive); GI50 [51]: > 100 µM (inactive); GI50 [52]: 89.3 µM (inactive); GI50 [53]: > 100 µM (inactive); GI50 [54]: 16.6 µM (inactive); GI50 [55]: > 100 µM (inactive); GI50 [56]: > 100 µM (inactive); GI50 [57]: > 100 µM (inactive)
